# The supplement of paper PMC10307832
# Columns and labels:
# Test in all cases: relative viability (nuclei count vs DMSO), 5 days (fraction); higher = more cells survive
# [1] = compound: C[C@@H](N)c1ccc(C(=O)Nc2ccnc3[nH]ccc23)cc1 + CC(C)C[C@H](NC(=O)[C@H](Cc1ccccc1)NC(=O)c1cnccn1)B(O)O [Bortezomib] (partner 0.002 µM)
# In short: (§1)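 Medians of duplicate plates are given as relative viability. That measure is the nuclei count in treated wells divided by the count in vehicle wells. Counts were taken on 4× images of lung cancer cell lines in 1536-well plates, 5 days after pin-tool dosing the day after seeding with one drug alone or a fixed anchor-drug dose plus five library-drug doses (not always all listed) in √10 steps.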
# [2] = compound: C1CNCCC1C2=CC(=NN2)C3=CC=NC=C3 + NC(=O)Nc1cc(-c2cccc(F)c2)sc1C(=O)N[C@H]1CCCNC1 [AZD7762] (partner 0.2 µM)
# In short: as §1
# [3] = compound: C[C@@H](N)c1ccc(C(=O)Nc2ccnc3[nH]ccc23)cc1 + Cc1nc(NC(=O)N2CCC[C@H]2C(N)=O)sc1-c1ccnc(C(C)(C)C(F)(F)F)c1 [Alpelisib] (partner 2 µM)
# In short: as §1
# [4] = compound: C1CNCCC1C2=CC(=NN2)C3=CC=NC=C3 + O=C(CCCCCCC(=O)Nc1ccccc1)NO [Vorinostat] (partner 1 µM)
# In short: as §1
Cell Line,relative viability ([1]; first compound 0.04 µM),relative viability ([1]; first compound 0.1265 µM),relative viability ([1]; first compound 0.4 µM),relative viability ([1]; first compound 1.265 µM),relative viability ([1]; first compound 4 µM),relative viability ([2]; first compound 0.08 µM),relative viability ([2]; first compound 0.8 µM),relative viability ([2]; first compound 2.53 µM),relative viability ([2]; first compound 8 µM),relative viability ([3]; first compound 0.04 µM),relative viability ([3]; first compound 0.1265 µM),relative viability ([3]; first compound 0.4 µM),relative viability ([3]; first compound 1.265 µM),relative viability ([3]; first compound 4 µM),relative viability ([4]; first compound 0.08 µM),relative viability ([4]; first compound 0.8 µM),relative viability ([4]; first compound 2.53 µM),relative viability ([4]; first compound 8 µM)
HCC-827,0.97,1.03,1.1,1.05,0.972,0.248,0.155,0.271,0.223,0.982,1.09,1.04,1.03,0.895,0.698,0.861,1.03,0.912
HOP-62,0.983,0.62,0.675,0.49,0.922,0.67,1,0.751,0.462,0.761,0.825,0.793,0.705,0.805,0.606,0.635,0.733,0.6
LC-2-ad,1.06,1.05,1.01,1.03,0.817,0.84,0.859,0.872,0.87,0.894,0.862,0.807,0.843,0.61,0.723,0.757,0.741,0.658
LCLC-97TM1,0.827,0.619,0.764,0.603,0.375,0.27,0.239,0.248,0.332,0.242,0.239,0.343,0.373,0.48,0.749,0.701,0.909,0.653
LCLC-103H,1.13,0.819,1.2,0.915,0.856,0.724,0.738,0.904,0.837,1.15,0.956,1.03,0.94,0.828,0.822,0.752,0.831,0.757
LOU-NH91,0.504,0.56,0.515,0.468,0.429,0.797,0.739,0.853,0.773,0.684,0.764,0.671,0.609,0.613,0.925,1.02,1.05,0.955
LU99A,0.947,1.23,1.23,0.88,0.78,0.403,0.338,0.4,0.439,0.554,0.554,0.562,0.545,0.52,0.465,0.45,0.528,0.554
LXF-289,1.01,0.976,1.07,1.05,0.952,1.15,1.14,1.15,1.1,1.12,1.04,1.04,1.07,0.85,0.783,0.785,0.723,0.766
NCI-H23,1.21,1.17,1.11,–,1.03,0.329,–,0.326,0.308,0.802,0.766,0.883,–,0.608,0.656,–,0.668,0.721
NCI-H322M,1.4,1.38,1.34,–,1.72,0.582,0.597,0.627,0.622,0.909,0.838,0.935,–,0.969,0.95,0.854,0.99,0.953
NCI-H441,0.599,0.472,0.693,0.57,0.449,0.967,1.18,0.948,1.19,0.715,0.602,0.641,0.669,0.919,0.593,0.944,0.783,0.77
NCI-H460,0.996,1.15,1.11,1.17,1.09,0.69,0.673,0.652,0.658,0.531,0.549,0.697,0.555,0.41,0.484,1.01,0.787,0.683
NCI-H596,1.05,0.856,1.14,1.23,1.26,1.1,1.31,1.12,1.39,0.556,0.496,0.508,0.498,0.409,0.73,0.417,0.638,0.589
NCI-H647,0.846,1.02,1.09,0.868,0.869,0.409,0.43,0.383,0.431,1.32,1.08,0.962,0.96,0.928,0.572,0.739,0.632,0.635
NCI-H650,0.586,0.695,0.86,–,0.64,0.853,1.07,1.09,0.949,1.19,1.15,1.06,–,0.841,0.433,0.437,0.434,0.546
NCI-H727,1.09,1.05,1.38,0.67,1.12,0.658,0.474,0.72,0.773,0.572,0.809,0.41,0.937,0.786,1.25,1.08,1.29,1.18
NCI-H838,0.624,0.758,0.605,0.393,0.342,0.928,0.888,0.989,0.934,0.909,0.884,0.773,0.571,0.344,0.763,0.744,0.744,0.688
NCI-H1355,1.04,1.22,1.35,–,1.26,0.682,0.801,0.822,0.796,0.885,0.833,0.919,–,0.746,0.637,0.629,0.788,0.637

Cell Line,relative viability ([1]; first compound 0.04 µM),relative viability ([1]; first compound 0.1265 µM),relative viability ([1]; first compound 0.4 µM),relative viability ([1]; first compound 1.265 µM),relative viability ([1]; first compound 4 µM),relative viability ([2]; first compound 0.08 µM),relative viability ([2]; first compound 0.8 µM),relative viability ([2]; first compound 2.53 µM),relative viability ([2]; first compound 8 µM),relative viability ([3]; first compound 0.04 µM),relative viability ([3]; first compound 0.1265 µM),relative viability ([3]; first compound 0.4 µM),relative viability ([3]; first compound 1.265 µM),relative viability ([3]; first compound 4 µM),relative viability ([4]; first compound 0.08 µM),relative viability ([4]; first compound 0.8 µM),relative viability ([4]; first compound 2.53 µM),relative viability ([4]; first compound 8 µM)
NCI-H1437,0.623,0.53,0.563,0.427,0.555,1.09,1.09,1.17,1.09,0.899,0.935,0.945,0.934,0.764,0.863,0.94,0.912,0.971
NCI-H1651,1.02,0.998,0.997,0.795,0.934,0.463,0.427,0.488,0.543,1.06,0.942,1.01,1.14,1.06,0.512,0.581,0.577,0.589
NCI-H1666,0.991,1.12,1.04,0.984,0.932,0.829,0.847,1.04,1,0.973,1.12,1.18,1.36,1.16,0.964,1.06,1.07,1.08
NCI-H1734,0.847,0.915,0.911,–,0.759,0.445,0.59,0.652,0.584,0.747,0.638,0.622,–,0.487,0.749,0.873,0.89,0.85
NCI-H1755,0.929,0.949,0.966,0.906,0.677,0.473,0.448,0.419,0.561,0.935,0.899,0.886,0.856,0.635,0.717,0.737,0.628,0.736
NCI-H1915,0.988,1.01,1.01,–,0.823,0.704,0.745,0.722,0.704,1.12,1.06,1.06,–,0.873,0.542,0.554,0.519,0.55
NCI-H1975,0.314,0.365,0.37,0.308,0.244,0.758,0.599,0.742,0.679,0.692,0.593,0.553,0.617,0.534,0.74,0.758,0.702,0.685
NCI-H1993,1.19,1.13,–,0.943,1.15,0.874,0.631,0.858,0.681,0.693,0.694,–,0.718,0.685,0.883,0.722,0.767,1.03
NCI-H2085,0.882,1,0.979,0.996,0.842,0.999,–,1.03,1,1,0.923,0.925,0.936,0.966,0.858,–,0.809,0.845
NCI-H2087,0.49,0.783,0.719,0.499,0.686,1.18,1.46,1.33,1.22,0.897,0.855,0.803,0.844,0.495,0.682,0.8,0.738,0.684
NCI-H2126,1.13,1.11,1.17,1.14,1.22,1.01,1.04,1.01,1.01,0.828,0.795,0.79,0.82,0.881,0.79,0.712,0.778,0.797
NCI-H2347,0.955,1.02,1.08,–,1.09,0.763,0.494,0.745,0.76,1.02,0.976,1.2,1.05,0.845,0.541,0.486,0.573,0.627
NCI-H2405,0.895,0.973,0.903,0.274,0.491,0.858,0.717,0.709,0.585,–,0.783,0.536,0.413,0.217,1.04,0.993,1.06,0.901
NCI-H3122,1.05,0.979,1.04,1,0.912,0.948,1.06,0.966,1.01,0.827,0.76,0.827,0.762,0.797,0.717,0.994,1.05,1.12
PC-3 [JPC-3],0.838,0.892,0.856,0.921,0.729,0.879,0.817,0.689,0.936,1.1,1.09,1.03,1.12,0.866,0.94,0.797,0.881,0.834
PC-14,0.832,0.836,0.874,0.923,0.755,0.363,0.383,0.237,0.348,0.925,0.932,1.02,1.02,0.811,0.536,0.712,0.897,0.7
RERF-LC-KJ,1.19,1.21,1.2,1.24,1.12,0.905,1.04,1.11,1.01,0.899,0.939,0.809,0.945,0.851,0.553,0.727,0.862,0.712
